Results published in patent publication US8673949B2 (Bristol-Myers Squibb Company, priority 2008, dated 2014).

Tests used:
[1] = Brain half-life of epothilone D in rats; assay type: in vivo; conditions: 1 mg/kg, Rat, IV, 1 mpk
Excerpt: To calculate an accurate brain half-life for a long half-life compound, measurements need to be taken for several half lives after a single dose.

[2] = system: phosphorylated Tau (AT8); test: AT8 phosphoTau immunohistochemistry in Tg4510 mice; assay type: in vivo, mouse
Protocol: Mice were euthanized by cervical dislocation at 5. 5 months followed by decapitation. Brains were immediately removed and divided down the midline into two hemispheres. The right hemisphere was placed into 20 mL of 4% paraformaldehyde (prepared fresh on the day of sacrifice) and stored overnight at 4° C. The following day, the brains were transferred to a tube containing 20 mL TBS (pH 7.4, 20 mM TRIS, 100 mM NaCl) and then stored at 4° C. until processing. Right hemispheres were embedded in paraffin, sectioned at 5 microns, and mounted on positively charged glass slides. The slides were dried overnight in a 60° C. oven and stored at room temperature until stained. The left hemispheres were frozen (within 2 minutes) on dry ice.
Paraffin-embedded thin sections (5 microns) were deparaffinized and rehydrated to water in 3 changes of xylene, two changes of 100% ethanol, and 1 change of 95% ethanol, followed by rinsing in water. Antigen retrieval was performed by steaming the slides in 10 mM sodium citrate buffer, pH 6.0 for 30 minutes in a Black and Decker Steamer (Model # HS900) and then cooled for 30 minutes. […] After washing in TBS, the signal is detected using a Vectastain ABC Elite Kit (Vector Labs Burlingame, Calif.) for 1 hour followed by detection using the diaminobenzadine reagent from Vector labs. […]

C/C1=C/C[C@@H](/C(C)=C/c2csc(C)n2)OC(=O)C[C@H](O)C(C)(C)C(=O)[C@H](C)[C@@H](O)[C@@H](C)CCC1 [Epothilone D, epothilone D]
half-life [1]: 31 h
AT8 phosphoTau staining, hippocampus CA1 ([2]; 1 mpk IP weekly, vs vehicle): much less phosphoTau staining
AT8 phosphoTau staining, hippocampus CA1 ([2]; 10 mpk IP weekly): intermediate levels of phosphoTau staining
